Test results taken from US12428406B2 (PMV Pharmaceuticals, Inc., priority 2019, dated 2025).

These molecules were tested against T1, p53 Y220C (Homo sapiens, UniProt P04637, Y220C) (assay: In vitro DNA binding activity assay (HTRF / TR-FRET): stabilization of p53 Y220C and increase of its DNA binding activity). Settings: recombinant His-tagged p53 Y220C DNA binding domain (aa 94-312), biotin-labeled consensus DNA, incubated at 27° C. or 29° C. for 60 min.
T1 construct: The recombinant protein was a truncation mutant containing only amino acids 94-312 of p53; made in house; host or cells: E. coli
T1 sequence (P04637 94-312, change not shown): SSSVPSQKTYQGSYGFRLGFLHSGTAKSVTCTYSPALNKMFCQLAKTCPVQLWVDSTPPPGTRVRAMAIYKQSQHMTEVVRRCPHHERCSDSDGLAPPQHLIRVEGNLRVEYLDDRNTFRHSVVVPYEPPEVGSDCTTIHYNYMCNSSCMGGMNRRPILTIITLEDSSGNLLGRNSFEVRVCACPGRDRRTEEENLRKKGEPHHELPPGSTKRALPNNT
Type: biochemical
Outline: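 Homogeneous time-resolved fluorescence with E. coli-derived p53 Y220C and biotinylated consensus DNA. Room-temperature incubations of 15 and 20 min precede reading. SC150 denotes the compound concentration required for 50% increased DNA binding.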

SC150 (concentration of the compound required to increase the DNA binding activity by 50%), + (+ = 0 μM ≤ SC150 < 0.05 μM):
COc1cc(S(=O)(=O)N2CCN(C)CC2)ccc1NCC#Cc1cc2c(NC3CCS(=O)(=O)CC3)cccc2n1CC(F)(F)F [Compound 1048A, 4-({2-[3-({2-methoxy-4-[(4-methylpiperazin-1-yl)sulfonyl]phenyl}amino)prop-1-yn-1-yl]-1-(2,2,2-trifluoroethyl)-1H-indol-4-yl}amino)-1λ^6-thiane-1,1-dione]
CNC(=O)c1ccc(NCC#Cc2cc3c(NC4CCS(=O)(=O)CC4)cccc3n2CC(F)(F)F)c(OC)c1 [Compound 1049A, 4-[(3-{4-[(1,1-dioxo-1λ^6-thian-4-yl)amino]-1-(2,2,2-trifluoroethyl)-1H-indol-2-yl}prop-2-yn-1-yl)amino]-3-methoxy-N-methylbenzamide]
COCC(CNC(=O)c1ccc(NCC#Cc2cc3c(N[C@@H]4CCN(C)C[C@@H]4F)cccc3n2CC(F)(F)F)c(OC)c1)OC(=O)C(C)C (stereo partly drawn) [Compound 1055A, 1-[(4-{[3-(4-{[(3S,4R)-3-fluoro-1-methylpiperidin-4-yl]amino}-1-(2,2,2-trifluoroethyl)-1H-indol-2-yl)prop-2-yn-1-yl]amino}-3-methoxyphenyl)formamido]-3-methoxypropan-2-yl 2-methylpropanoate]
COc1cc(C(=O)NC(C)CO)ccc1NCC#Cc1cc2c(N[C@@H]3CCN(C)C[C@@H]3F)cccc2n1CC(F)(F)F (stereo partly drawn) [Compound 1056A, 4-{[3-(4-{[(3S,4R)-3-fluoro-1-methylpiperidin-4-yl]amino}-1-(2,2,2-trifluoroethyl)-1H-indol-2-yl)prop-2-yn-1-yl]amino}-N-(1-hydroxypropan-2-yl)-3-methoxybenzamide]
COc1cc(C(=O)NCC(C)O)ccc1NCC#Cc1cc2c(N[C@@H]3CCN(C)C[C@@H]3F)cccc2n1CC(F)(F)F (stereo partly drawn) [Compound 1057A, 4-{[3-(4-{[(3S,4R)-3-fluoro-1-methylpiperidin-4-yl]amino}-1-(2,2,2-trifluoroethyl)-1H-indol-2-yl)prop-2-yn-1-yl]amino}-N-(2-hydroxypropyl)-3-methoxybenzamide]
CNC(=O)c1ccc(NCC#Cc2cc3c(N[C@@H]4CCN(C)C[C@@H]4F)cccc3n2CC(F)(F)F)c(O)c1 [Compound 1058A, 4-{[3-(4-{[(3S,4R)-3-fluoro-1-methylpiperidin-4-yl]amino}-1-(2,2,2-trifluoroethyl)-1H-indol-2-yl)prop-2-yn-1-yl]amino}-3-hydroxy-N-methylbenzamide]
CCOc1cc(C(N)=O)ccc1NCC#Cc1cc2c(N[C@@H]3CCN(C)C[C@@H]3F)cccc2n1CC(F)(F)F [Compound 1059A, 3-ethoxy-4-{[3-(4-{[(3S,4R)-3-fluoro-1-methylpiperidin-4-yl]amino}-1-(2,2,2-trifluoroethyl)-1H-indol-2-yl)prop-2-yn-1-yl]amino}benzamide]
CCNC(=O)c1ccc(NCC#Cc2cc3c(N[C@@H]4CCN(C)C[C@@H]4F)cccc3n2CC(F)(F)F)c(O)c1 [Compound 1060A, N-ethyl-4-{[3-(4-{[(3S,4R)-3-fluoro-1-methylpiperidin-4-yl]amino}-1-(2,2,2-trifluoroethyl)-1H-indol-2-yl)prop-2-yn-1-yl]amino}-3-hydroxybenzamide]
COc1cc(C(=O)NCC(COC(=O)C(C)C)OC)ccc1NCC#Cc1cc2c(N[C@@H]3CCN(C)C[C@@H]3F)cccc2n1CC(F)(F)F (stereo partly drawn) [Compound 1061A, 3-[(4-{[3-(4-{[(3S,4R)-3-fluoro-1-methylpiperidin-4-yl]amino}-1-(2,2,2-trifluoroethyl)-1H-indol-2-yl)prop-2-yn-1-yl]amino}-3-methoxyphenyl)formamido]-2-methoxypropyl 2-methylpropanoate]
CCNC(=O)c1ccc(NCC#Cc2cc3c(N[C@@H]4CCNC[C@@H]4F)cccc3n2CC(F)(F)F)c(OC)c1 [Compound 1062A, N-ethyl-4-{[3-(4-{[(3S,4R)-3-fluoropiperidin-4-yl]amino}-1-(2,2,2-trifluoroethyl)-1H-indol-2-yl)prop-2-yn-1-yl]amino}-3-methoxybenzamide]
CCN1CC[C@@H](Nc2cccc3c2cc(C#CCNc2ccc(C(N)=O)cc2OC)n3CC(F)(F)F)[C@@H](F)C1 [Compound 1063A, 4-{[3-(4-{[(3S,4R)-1-ethyl-3-fluoropiperidin-4-yl]amino}-1-(2,2,2-trifluoroethyl)-1H-indol-2-yl)prop-2-yn-1-yl]amino}-3-methoxybenzamide]
COc1cc(C(=O)N(C)C)ncc1NCC#Cc1cc2c(N[C@@H]3CCN(C)C[C@@H]3F)cccc2n1CC(F)(F)F [Compound 1064A, 5-{[3-(4-{[(3S,4R)-3-fluoro-1-methylpiperidin-4-yl]amino}-1-(2,2,2-trifluoroethyl)-1H-indol-2-yl)prop-2-yn-1-yl]amino}-4-methoxy-N,N-dimethylpyridine-2-carboxamide]
CNC(=O)c1cc(OC)c(NCC#Cc2cc3c(N[C@@H]4CCN(C)C[C@@H]4F)cccc3n2CC(F)(F)F)cn1 [Compound 1065A, 5-{[3-(4-{[(3S,4R)-3-fluoro-1-methylpiperidin-4-yl]amino}-1-(2,2,2-trifluoroethyl)-1H-indol-2-yl)prop-2-yn-1-yl]amino}-4-methoxy-N-methylpyridine-2-carboxamide]
CN1CC[C@@H](Nc2cccc3c2cc(C#CCNC(=O)c2cnn(C(C)(C)C)c2)n3CC(F)(F)F)[C@@H](F)C1 [Compound 1066A, 1-tert-butyl-N-[3-(4-{[(3S,4R)-3-fluoro-1-methylpiperidin-4-yl]amino}-1-(2,2,2-trifluoroethyl)-1H-indol-2-yl)prop-2-yn-1-yl]-1H-pyrazole-4-carboxamide]
COc1cc(S(C)(=O)=O)ccc1NCC#Cc1cc2c(N[C@@H]3CCN(C(C)(C)C)C[C@@H]3F)cccc2n1CC(F)(F)F [Compound 1068A, N-((3S,4R)-1-(tert-butyl)-3-fluoropiperidin-4-yl)-2-(3-((2-methoxy-4-(methylsulfonyl)phenyl)amino)prop-1-yn-1-yl)-1-(2,2,2-trifluoroethyl)-1H-indol-4-amine]
COc1cc(S(C)(=O)=O)ccc1NCC#Cc1cc2c(N[C@H]3CCN(C(C)(C)C)C[C@H]3F)cccc2n1CC(F)(F)F [Compound 1069A, N-[(3R,4S)-1-tert-butyl-3-fluoropiperidin-4-yl]-2-{3-[(4-methanesulfonyl-2-methoxyphenyl)amino]prop-1-yn-1-yl}-1-(2,2,2-trifluoroethyl)-1H-indol-4-amine]
COc1cc(C(=O)O)ccc1NCC#Cc1cc2c(N[C@@H]3CCN(C(C)(C)C)C[C@@H]3F)cccc2n1CC(F)(F)F [Compound 1070A, 4-{[3-(4-{[(3S,4R)-1-tert-butyl-3-fluoropiperidin-4-yl]amino}-1-(2,2,2-trifluoroethyl)-1H-indol-2-yl)prop-2-yn-1-yl]amino}-3-methoxybenzoic acid]
COc1cc(C(=O)O)ccc1NCC#Cc1cc2c(N[C@H]3CCN(C(C)(C)C)C[C@H]3F)cccc2n1CC(F)(F)F [Compound 1071A, 4-{[3-(4-{[(3R,4S)-1-tert-butyl-3-fluoropiperidin-4-yl]amino}-1-(2,2,2-trifluoroethyl)-1H-indol-2-yl)prop-2-yn-1-yl]amino}-3-methoxybenzoic acid]
CNC(=O)c1ccc(NCC#Cc2cc3c(N[C@@H]4CCN(C(C)(C)C)C[C@@H]4F)cccc3n2CC(F)(F)F)c(OC)c1 [Compound 1072A, 4-{[3-(4-{[(3S,4R)-1-tert-butyl-3-fluoropiperidin-4-yl]amino}-1-(2,2,2-trifluoroethyl)-1H-indol-2-yl)prop-2-yn-1-yl]amino}-3-methoxy-N-methylbenzamide]
CNC(=O)c1ccc(NCC#Cc2cc3c(N[C@H]4CCN(C(C)(C)C)C[C@H]4F)cccc3n2CC(F)(F)F)c(OC)c1 [Compound 1073A, 4-{[3-(4-{[(3R,4S)-1-tert-butyl-3-fluoropiperidin-4-yl]amino}-1-(2,2,2-trifluoroethyl)-1H-indol-2-yl)prop-2-yn-1-yl]amino}-3-methoxy-N-methylbenzamide]
CCN1CC[C@@H](Nc2cccc3c2cc(C#CCNc2ccc(C(=O)NC)cc2OC)n3CC(F)(F)F)[C@@H](F)C1 [Compound 1074A, 4-{[3-(4-{[(3S,4R)-1-ethyl-3-fluoropiperidin-4-yl]amino}-1-(2,2,2-trifluoroethyl)-1H-indol-2-yl)prop-2-yn-1-yl]amino}-3-methoxy-N-methylbenzamide]
